Experimental data taken from patent US20110105389A1 (priority 2009, published 2011).
Like-named read-outs stand apart in the source and are kept apart here.

Legend:
CYP3A4 = CYP3A4 (Homo sapiens, UniProt P08684); experiment: Cytochrome P450 inhibition, Method B6 (two substrates); details: read-out: IC50 CYP 3A4; Table 4b; midazolam used as substrate
CYP2D6 = CYP2D6 (Homo sapiens, UniProt P10635); experiment: Cytochrome P450 inhibition, Method B6; details: read-out: IC50 CYP 2D6; Table 4b; dextromethorphan used as substrate
Sequence of CYP2D6 (P10635 whole entry): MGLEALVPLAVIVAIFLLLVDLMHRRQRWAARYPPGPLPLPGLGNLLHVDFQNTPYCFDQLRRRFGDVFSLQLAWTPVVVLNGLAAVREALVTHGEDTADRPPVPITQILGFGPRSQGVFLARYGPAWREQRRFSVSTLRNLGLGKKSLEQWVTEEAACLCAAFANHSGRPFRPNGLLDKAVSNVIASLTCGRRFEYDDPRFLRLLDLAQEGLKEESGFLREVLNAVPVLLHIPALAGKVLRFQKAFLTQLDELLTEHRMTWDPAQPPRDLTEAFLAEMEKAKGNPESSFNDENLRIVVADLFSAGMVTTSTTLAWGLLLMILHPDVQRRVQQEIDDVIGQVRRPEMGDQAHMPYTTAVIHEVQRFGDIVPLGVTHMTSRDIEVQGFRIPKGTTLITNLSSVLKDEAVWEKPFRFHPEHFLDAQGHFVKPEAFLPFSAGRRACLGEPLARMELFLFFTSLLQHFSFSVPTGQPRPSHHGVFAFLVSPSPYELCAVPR

[1] = target: T1, human ghrelin receptor (GRLN, growth hormone secretagogue receptor, hGHS-R1a) (Homo sapiens, UniProt Q92847); experiment: Competitive radioligand binding assay (ghrelin receptor), Method B1; details: Ghrelin receptor binding activity, Method B1
T1 construct: purchased PerkinElmer BioSignal #RBHGHSM, lot#1887; host or cells: HEK-293 cells, stably transfected (membranes)
T1 sequence (Q92847 whole entry): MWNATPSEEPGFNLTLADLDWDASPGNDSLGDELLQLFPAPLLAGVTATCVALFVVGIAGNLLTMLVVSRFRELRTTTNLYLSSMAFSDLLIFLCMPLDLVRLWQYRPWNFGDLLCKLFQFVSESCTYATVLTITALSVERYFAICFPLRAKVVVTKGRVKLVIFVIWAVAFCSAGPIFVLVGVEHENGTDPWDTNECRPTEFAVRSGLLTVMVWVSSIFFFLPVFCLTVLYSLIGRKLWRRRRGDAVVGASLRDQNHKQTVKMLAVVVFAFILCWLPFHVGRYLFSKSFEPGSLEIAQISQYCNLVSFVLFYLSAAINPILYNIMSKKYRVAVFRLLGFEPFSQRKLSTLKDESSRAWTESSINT
Procedure, shortened: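 Filtration competition format: bound radioactivity counted after GF/C harvesting and cold 50 mM Tris-HCl washes. Incubation lasted 30 min at room temperature in Hepes pH 7.4 buffer with Ca2+, Mg2+, EDTA and 0.4% BSA (DMSO ≤0.1% final); values from variable-slope non-linear regression.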

[2] = target: T2, GHS-R1a receptor (HEK293 cells expressing GHS-R1a receptor) (Homo sapiens, UniProt Q92847); experiment: Fluorescence functional assay (ghrelin receptor), Method B2, agonist and antagonist mode; format: cell-based; details: functional activity as an antagonist at the ghrelin receptor, Methods B2 and B3
T2 construct: host or cells: HEK293
T2 sequence (Q92847 whole entry): as above
Procedure, shortened: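 Calcium flux read by ImageTrak epifluorescence in HEK293 cells stably expressing GHS-R1a, loaded 1 h at 37 °C with Calcium-3 dye; buffer HBSS/20 mM Hepes, pH 7.4, with probenecid and BSA. Agonists injected after 10 s baseline, read 50 s more; antagonists 3 min. Sigmoidal fits gave EC50 or IC50.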

[3] = tested on: rat stomach fundus strips; experiment: Ex-vivo potency evaluation on the rat stomach fundus (inhibition of ghrelin-induced contractility), Method B10; details: EFS
Method: B10. Ex-vivo Potency Evaluation on the Rat Stomach Fundus
Fundus strips (approximately 0.4×1 cm) were cut from the stomach of adult male Wistar rats parallel to the circular muscle fibers. They were placed between two platinum ring electrodes, 1 cm apart (Radnoti, ADlnstruments, USA) in 10 ml tissue baths containing Krebs solution bubbled with 5% CO2 in O2 and maintained at 37° C. Tissues were suspended under 1.5 g resting tension. Changes of tension were measured isometrically with force transducers and recorded with a PowerLab 8/30 data acquisition system (ADlnstruments, USA). Tissues were allowed to equilibrate for 60 min during which time bath solutions were changed every 15 min.
EFS was achieved by applying 0.5 ms pulses, 5 Hz frequency, at a maximally effective voltage of 70 V. EFS was applied for 30 sec at 3 min intervals for a 30 min initial period. This initial period was separated by a […] interval with wash out of the bath solution. Then, a second period of stimulation was started. […] Responses to the agents were measured and expressed as % of the mean of three or four pre-drug responses to EFS. All compounds were dissolved at 1 mM in distilled water or MeOH, as stock solutions.
IC50 values for the inhibition of ghrelin-induced contractility by representative compounds of the invention are presented in Table 7.

[4] = Metabolic stability in human liver microsomes, Method B8; format: in vitro ADME; details: human liver microsomes 0.8 mg/mL, 5 μM compound, 37° C.
Procedure, shortened: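 Pooled human liver microsomes (15 mixed-sex donors) at 0.8 mg/mL in 100 mM potassium phosphate, pH 7.4, with 1.5 mM NADPH and 8 mM MgCl2. Compounds tested in duplicate at a single 5 μM (0.05% DMSO), incubated at 37° C.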

[5] = cited from earlier work

Sequence of CYP3A4 (P08684 whole entry): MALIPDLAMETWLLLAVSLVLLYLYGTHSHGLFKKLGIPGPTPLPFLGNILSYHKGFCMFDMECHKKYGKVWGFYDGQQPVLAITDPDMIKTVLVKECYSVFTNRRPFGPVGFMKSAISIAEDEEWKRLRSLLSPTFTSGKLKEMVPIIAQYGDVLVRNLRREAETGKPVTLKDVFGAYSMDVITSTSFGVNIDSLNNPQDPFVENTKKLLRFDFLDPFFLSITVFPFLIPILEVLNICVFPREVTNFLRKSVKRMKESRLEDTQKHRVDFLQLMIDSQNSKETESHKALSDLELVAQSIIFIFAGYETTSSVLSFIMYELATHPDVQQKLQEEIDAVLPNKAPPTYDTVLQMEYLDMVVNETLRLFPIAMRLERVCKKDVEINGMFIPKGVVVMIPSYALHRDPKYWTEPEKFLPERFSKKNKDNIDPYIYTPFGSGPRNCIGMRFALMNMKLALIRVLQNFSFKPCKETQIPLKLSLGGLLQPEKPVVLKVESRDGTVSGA

SMILES | IC50 (CYP3A4) [µM] | IC50 (CYP2D6) [µM] | IC50 [1] [µM] | Ki [1] [µM] | Antagonist Activity [2] | IC50 [3] [µM] | HLM, metabolic stability in human liver microsomes [4] [μL/min/mg protein] | known plasma protein binding value ([5]; reference controls) [%] | known plasma protein binding value ([5]; plasma) [%]
CCC(C)[C@@H]1NCCOc2ccccc2/C=C/CNC(=O)[C@@H](Cc2ccccc2)NC(=O)[C@H](C(C)O)N(C)C1=O (some centres unmarked) [Compound 1318] | 3.9 | > 5 | 0.01 to 0.1 | 0.001 to 0.01 | C (C = 10-100 nM) | – | – | – | –
COC(C)[C@@H]1NCCOc2ccccc2/C=C/CNC(=O)[C@@H](Cc2ccccc2)NC(=O)[C@H](C(C)O)N(C)C1=O (some centres unmarked) [Compound 1324] | > 5 | > 5 | – | 0.01 to 0.1 | D (D = 100-500 nM) | – | – | – | –
CCC(C)[C@@H]1NCCOc2ccccc2/C=C/CNC(=O)[C@@H](Cc2ccccc2F)NC(=O)[C@H](C(C)O)N(C)C1=O (some centres unmarked) [Compound 1325] | > 3.1 | > 5 | 0.01 to 0.1 | 0.01 to 0.1 | C (C = 10-100 nM) | 0.029 | – | – | –
CCC(C)[C@@H]1NCCOc2ccccc2CC[C@@H](C)NC(=O)[C@@H](Cc2ccccc2)NC(=O)[C@H](C(C)O)N(C)C1=O (some centres unmarked) [Compound 1358] | 1.6 | > 20 | – | – | C (C = 10-100 nM) | – | – | – | –
CC(C)[C@@H]1NCCOc2ccccc2CC[C@@H](C)NC(=O)[C@@H](Cc2c[nH]c3ccccc23)NC(=O)[C@H](C(C)O)N(C)C1=O (some centres unmarked) [Compound 1375] | 8.8 | > 20 | – | – | B (B = 1-10 nM) | – | 58.4 | – | –
CC(C)[C@@H]1NCCOc2ccccc2CC[C@@H](C)NC(=O)[C@@H](Cc2ccsc2)NC(=O)[C@H](C(C)O)N(C)C1=O (some centres unmarked) [Compound 1399] | 2.3 | > 20 | – | – | B (B = 1-10 nM) | – | – | – | –
CC(C)[C@@H]1NCCOc2ccccc2CC[C@@H](C)NC(=O)[C@@H](Cc2ccc3ccccc3n2)NC(=O)[C@H](C(C)O)N(C)C1=O (some centres unmarked) [Compound 1413] | 1 | 14.7 | – | – | B (B = 1-10 nM) | – | – | – | –
COc1ccccc1C[C@H]1NC(=O)[C@H](C(C)O)N(C)C(=O)[C@H](C(C)C)NCCOc2ccccc2CC[C@@H](C)NC1=O (some centres unmarked) [Compound 1418] | 0.9 | 14.5 | – | – | B (B = 1-10 nM) | – | 32.2 | – | –
CC(C)[C@@H]1NCCOc2ccccc2/C=C/CNC(=O)[C@@H](Cc2cccc(Cl)c2)NC(=O)[C@H](C(C)O)N(C)C1=O (some centres unmarked) [Compound 1432] | 1.2 | 5.2 | – | – | B (B = 1-10 nM) | – | 25.1 | – | –
C=C[C@H]1C[N@@]2CC[C@H]1C[C@H]2[C@H](O)c1ccnc2ccc(OC)cc12 [quinine] | – | – | – | – | – | – | – | ~35 | –
CC(=O)CC(c1ccccc1)c1c(O)c2ccccc2oc1=O (centres unmarked) [warfarin] | – | – | – | – | – | – | – | – | ~98
